The values that follow come from patent publication US20230203060A1 (GENFLEET THERAPEUTICS (SHANGHAI) INC., priority 2020, published 2023).

In general, IC50 refers to the concentration that gives 50% inhibition.

What all share (type): cell-based, human
Experiment [1] concerns KRAS G12C mutant MIA PaCa-2 cells. The experiment can be described thus: Cell proliferation inhibition experiment, 3D spheroid, CellTiter-Glo, MIA PaCa-2. The following applies: Homo sapiens, MIA PaCa-2, 120 h, 3D cell model in 384-well spheroid plate, 5 days, CellTiter-Glo; read-out: MIA-PaCa2 IC50. The source says:
Raw materials and instruments: MIA PaCa-2 purchased from ATCC; article number: CRL-1420; batch number: 63143594; DMEM purchased from Gibco; article number: 11995-065; batch number: 2186878; FBS purchased from Gibco; article number: 10099-141; batch number: 2109290CP; Horse Serum purchased from Gibco; article number: 16050-122; batch number: 1818976; PS purchased from Gibco; article number: 15140-122; batch number: 2145451; Trypsin-EDTA purchased from Gibco; article number: 25200-072; batch number: 2085552; CellTiter Glo working solution purchased from Promega; article number: G9683; batch number 398478; DMSO purchased from VWR AMRESCO; article number: 0231-500ML; batch number: 18C0656168; 384-well spheroid plate purchased from Corning; article number: 3830; batch number: 27519032; white opaque 384-well plate purchased from Corning; article number: 3570; batch number: 26819023; microplate reader purchased from PerkinElmer; model: Envision MLD2105-0020; equipment number 1050369.
MIA PaCa-2 is a KRAS G12C mutant human pancreatic cancer cell line, cultured in 10% FBS+2.5% Horse Serum DMEM+1% PS culture medium; cells at logarithmic growth stage were taken, digested with trypsin-EDTA, then collected and counted, and 200 MIA PaCa-2 were inoculated in a 384-well spheroid plate, respectively, and cultured overnight to establish a 3D cell model. A 3.16-fold gradient concentration stock solution of 1000× compound was prepared with DMSO, and diluted 100-fold to 10× compound stock solution with culture medium. On the second day after cell inoculation, 10× compound stock solution was added to each cell culture well, with a final concentration of 1× and a DMSO content of 0.1%. DMSO was used as experimental control (control), and culture medium was used as blank control (blank). After 5 days of compound cell culture, 30 μL of CellTiter-Glo working solution was added to each well, mixed well and incubated for 30 minutes. After standing at room temperature for 30 minutes, 40 μL of the mixed solution was transferred to a white opaque 384-well plate, and the luminescence chemiluminescence value was read with a microplate reader. The cell proliferation inhibition rate IR (%)=(RLU control -RLU compound)/(RLU control−RLU blank)×100% was calculated. The gradient dilution concentration of the compound and the corresponding cell proliferation inhibition rate were fitted by XLFit four-parameter method, and the IC50 value was calculated. The inhibitory activity of the compounds prepared in the above embodiments of the present disclosure on KRAS G12C mutant MIA PaCa-2 cells was 0.0001 μM to 0.5 μM; the inhibitory activity of some compounds on KRAS G12C mutant MIA PaCa-2 cells was 0.001 μM to 0.1 μM or 0.001 μM to 0.05 μM.
Background: ATP-based viability assays read luminescence as a measure of living cells.

Experiment [2] deals with A549 cells (KRAS G12S mutant). The experiment can be described thus: Cell proliferation inhibition experiment, 3D spheroid, CellTiter-Glo, A549. The conditions noted are these: Homo sapiens, A549, 120 h, A549 (KRAS G12S mutant) 3D spheroid, 5 days with compound, CellTiter-Glo; read-out: A549 IC50. The source says:
(§1) Raw materials and instruments: NCI-H358 purchased from ATCC; article number: CRL-5807; batch number: 70010825; A549 purchased from ATCC; article number: CCL-185; batch number: 70007820; RPMI1640 purchased from Gibco; article number: 11875-093; batch number: 2152748; F-12K purchased from Gibco; article number: 21127-022; batch number: 2185853; FBS purchased from Gibco; article number: 10099-141; batch number: 2109290CP; PS purchased from Gibco; article number: 15140-122; batch number: 2145451; Trypsin-EDTApurchased from Gibco; article number: 25200-072; batch number: 2085552; CellTiter Glo working solution purchased from Promega; article number: G9683; batch number: 398478; DMSO purchased from VWR AMRESCO; article number: 0231-500ML; batch number: 18C0656168; 384-well spheroid plate purchased from Corning; article number: 3830; batch number: 27519032; white opaque 384-well plate purchased from Corning; article number: 3570; batch number: 26819023; microplate reader purchased from PerkinElmer; model: Envision MLD2105-0020; equipment number 1050369.
(§2) NCI-H358 is a KRAS G12C mutant human non-small cell lung cancer cell line, cultured in 10% FBS RPMI-1640+1% PS culture medium; and A549 is a KRAS G12S mutant human lung adenocarcinoma cell line, cultured in 10% FBS F-12K+1% PS culture medium. Cells at logarithmic growth stage were taken, digested with trypsin-EDTA, then collected and counted. H358 was adjusted to 1.8 E4 cells/mL with 2% FBS RPMI-1640 culture medium, and A549 was adjusted to 8.9 E3 cells/mL with 2% FBS F-12K culture medium; 800 (45 μL) H358 or 400 (45 μL) A549 were inoculated respectively in a 384-well spheroid plate and cultured overnight to establish a 3D cell model. A 3.16-fold gradient concentration stock solution of 1000× compound was prepared with DMSO, and diluted 100-fold to 10× compound stock solution with 2% FBS culture medium. On the second day after cell inoculation, 5 μL of 10× compound stock solution was added to each cell culture well, with a final concentration of 1× and a DMSO content of 0.1%. DMSO was used as experimental control (control), and 2% FBS culture medium was used as blank control (blank). After 5 days of compound cell culture, 25 μL of CellTiter-Glo working solution was added to each well, mixed well at 400 rpm and incubated for 30 minutes. After standing at room temperature for 30 minutes, 40 μL of the mixed solution was transferred to a white opaque 384-well plate, and the luminescence chemiluminescence value was read with a microplate reader. The cell proliferation inhibition rate IR (%)=(RLU control -RLU compound)/(RLU control -RLU blank) x100% was calculated. The gradient dilution concentration of the compound and the corresponding cell proliferation inhibition rate were fitted by Prism 6 four-parameter method, and the IC50 value was calculated. The inhibitory activity of the compounds prepared in the above embodiments of the present disclosure on KRAS G12C mutant NCI-H358 cells was 0.0001 μM to 0.5 μM; the inhibitory activity of some compounds on KRAS G12C mutant NCI-H358 cells was 0.001 μM to 0.1 μM or 0.001 μM to 0.05 μM.

For experiment [3], the system named is KRAS G12C mutant NCI-H358 cells. The experiment in a line: Cell proliferation inhibition experiment, 3D spheroid, CellTiter-Glo, NCI-H358. The following applies: Homo sapiens, NCI-H358, 120 h, NCI-H358 (KRAS G12C mutant) 3D spheroid, 5 days with compound, CellTiter-Glo; read-out: H358 IC50.
Text: as §1, §2

Molecules are shown by their SMILES.

With `C=CC(=O)N1CCN2C(=O)c3c(N4CCC5(COC5)C4)nc(-c4c(O)cccc4F)c(Cl)c3OC[C@H]2C1` [Z45, (6aR)-8-acryloyl-4-chloro-3-(2-fluoro-6-hydroxyphenyl)-1-(2-oxa-6-azaspiro[3.4]octan-6-yl)-6,6a,7,8,9,10-hexahydro-12H-pyrazino[2,1-c]pyrido[3,4-f][1,4]oxazepin-12-one], the IC50 in experiment [1] is 60 nM; in experiment [2], more than 20000 nM; in experiment [3], 46 nM.
Regarding `C=CC(=O)N1CCN2C(=O)c3c(N4CCC5CN(C)CC54)nc(-c4c(O)cccc4F)c(Cl)c3OC[C@H]2C1` (stereo partly drawn) [Z47, (6aR)-8-acryloyl-4-chloro-3-(2-fluoro-6-hydroxyphenyl)-1-(5-methylhexahydropyrrolo[3,4-b]pyrrol-1(2H)-yl)-6,6a,7,8,9,10-hexahydro-12H-pyrazino[2,1-c]pyrido[3,4-f][1,4]oxazepin-12-one], the IC50 in experiment [1] was 42 nM; in experiment [2], more than 20000 nM; in experiment [3], 47 nM.
For the compound `C=CC(=O)N1CCN2C(=O)c3c(N(C)C4CCOCC4)nc(-c4c(O)cccc4F)c(Cl)c3OC[C@H]2C1` [Z25, (6aR)-8-acryloyl-4-chloro-3-(2-fluoro-6-hydroxyphenyl)-1-(methyl(tetrahydro-2H-pyran-4-yl)amino)-6,6a,7,8,9,10-hexahydro-12H-pyrazino[2,1-c]pyrido[3,4-f][1,4]oxazepin-12-one], the IC50 in experiment [1] is 81 nM; in experiment [2], more than 20000 nM; in experiment [3] it was 58 nM.
The matching figures for `C=CC(=O)N1CCN2Cc3c(NC(C)(C)C)nc(-c4c(O)cccc4F)c(Cl)c3OC[C@H]2C1` [Z71, 1-((6aR)-1-(tert-butylamino)-4-chloro-3-(2-fluoro-6-hydroxyphenyl)-6a,7,9,10-tetrahydro-12H-pyrazino[2,1-c]pyrido[3,4-f][1,4]oxazepin-8(6H)-yl)prop-2-en-1-one]: 467 nM, more than 10000 nM and 275 nM.
As for `C=CC(=O)N1CCN2C(=O)c3c(N4CCN(C5COC5)CC4C)nc(-c4c(O)cccc4F)c(Cl)c3OC[C@H]2C1` (stereo partly drawn) [Z239, (6aR)-8-acryloyl-4-chloro-3-(2-fluoro-6-hydroxyphenyl)-1-(2-methyl-4-(oxetan-3-yl)piperazin-1-yl)-6,6a,7,8,9,10-hexahydro-12H-pyrazino[2,1-c]pyrido[3,4-f][1,4]oxazepin-12-one], the IC50 was 41.6 nM in experiment [1], 13800 nM in experiment [2] and 22.9 nM in experiment [3].
The matching figures for `C=CC(=O)N1CCN2C(=O)c3c(-c4ccnn4C(C)C)nc(-c4c(O)cccc4F)c(Cl)c3OC[C@H]2C1` [Z77, (6aR)-8-acryloyl-4-chloro-3-(2-fluoro-6-hydroxyphenyl)-1-(1-isopropyl-1H-pyrazol-5-yl)-6,6a,7,8,9,10-hexahydro-12H-pyrazino[2,1-c]pyrido[3,4-f][1,4]oxazepin-12-one]: 365 nM, more than 20000 nM and 157 nM.
On to `C=CC(=O)N1CCN2C(=O)c3c(N4CCOC5(CCC5)C4)nc(-c4c(O)cccc4F)c(Cl)c3OC[C@H]2C1` [Z36, (6aR)-8-acryloyl-4-chloro-3-(2-fluoro-6-hydroxyphenyl)-1-(5-oxa-8-azaspiro[3.5]nonan-8-yl)-6,6a,7,8,9,10-hexahydro-12H-pyrazino[2,1-c]pyrido[3,4-f][1,4]oxazepin-12-one], for which the IC50 in experiment [1] was 57 nM; in experiment [2], more than 1000 nM; in experiment [3], 40 nM.
On to `C=CC(=O)N1CCN2C(=O)c3c(N4CCCC4)nc(-c4c(O)cccc4F)c(Cl)c3OC[C@H]2C1` [Z11, (6aR)-8-acryloyl-4-chloro-3-(2-fluoro-6-hydroxyphenyl)-1-(pyrrolidin-1-yl)-6,6a,7,8,9,10-hexahydro-12H-pyrazino[2,1-c]pyrido[3,4-f][1,4]oxazepin-12-one], for which the IC50 in experiment [1] is 64 nM; in experiment [2], 9340 nM; in experiment [3], 42 nM.
In the case of `C=CC(=O)N1CCN2C(=O)c3c(N4CCOC[C@H]4C)nc(-c4c(O)cccc4F)c(Cl)c3OC[C@H]2C1` [Z27, (6aR)-8-acryloyl-4-chloro-3-(2-fluoro-6-hydroxyphenyl)-1-((R)-3-methylmorpholino)-6,6a,7,8,9,10-hexahydro-12H-pyrazino[2,1-c]pyrido[3,4-f][1,4]oxazepin-12-one], the IC50 in experiment [1] was 41 nM; in experiment [2], more than 5000 nM; in experiment [3], 33 nM.
The matching figures for `C=CC(=O)N1CCN2C(=O)c3c(N[C@@H](C)c4ccccc4)nc(-c4c(O)cccc4F)c(Cl)c3OC[C@H]2C1` [Z29, (6aR)-8-acryloyl-4-chloro-3-(2-fluoro-6-hydroxyphenyl)-1-(((S)-1-phenylethyl)amino)-6,6a,7,8,9,10-hexahydro-12H-pyrazino[2,1-c]pyrido[3,4-f][1,4]oxazepin-12-one]: 77 nM, 2430 nM and 30 nM.
Regarding `C=CC(=O)N1CCN2C(=O)c3c(N4C[C@H]5CC[C@@H](C4)O5)nc(-c4c(O)cccc4F)c(Cl)c3OC[C@H]2C1` [Z62, (6aR)-8-acryloyl-4-chloro-1-((1R,5S)-8-oxa-3-azabicyclo[3.2.1]octan-3-yl)-3-(2-fluoro-6-hydroxyphenyl)-6,6a,7,8,9,10-hexahydro-12H-pyrazino[2,1-c]pyrido[3,4-f][1,4]oxazepin-12-one], the IC50 was 29 nM in experiment [1], more than 10000 nM in experiment [2] and 23 nM in experiment [3].
